Test results as given in patent US11850256B2, “Small molecule-mediated restoration of airway surface physiology in human cystic fibrosis lung epithelia” (The Board of Trustees of the University of Illinois, priority 2016, dated 2023).
Entries after “also recorded” stand apart in the source; their conditions may differ.

How the values were obtained:
[1] = test system: CuFi-1 epithelial monolayers; experiment: Airway surface liquid (ASL) pH assay, SNARF-dextran ratiometric dye, CuFi-1 monolayers; assay type: cell-based, human
Protocol: Airway surface liquid (ASL) pH assay. ASL pH was studied using an established fluorescent dye assay using the Dextran, SNARF®-1, 70,000 MW ratiometric dye (Thermo Fisher D3304). Mature, differentiated CuFi-1 (ATCC CRL-4013) epithelial monolayers were grown on Corning Costar 0.4 μm Transwell Clear Polyester Membrane cell culture inserts (Corning 3470). CuFi epithelia were treated with perfluorinated hydrocarbon (PFC) vehicle, AmB, AmB:Chol or Chol and incubated for the time course of the experiment at 37° C. On the day of imaging, 100 μL of a suspension of SNARF-dextran in PFC was added to the apical side of the monolayers. Monolayers were imaged 2 hours after dye addition. The monolayers were placed on 100 μL of Ultroser G media on a 10 mm glass bottom Fluorodish for imaging (World Precision Instruments). Five images per membrane were taken on a Zeiss LSM 880 confocal microscope at 40× water immersion. These images were analyzed using ImageJ to determine the green to red ratio of each image. Solutions of known pH were used to calibrate pH detection using this system. […]

[2] = test system: non-CF primary human lung epithelia; experiment: ASL pH in non-CF (control) primary human lung epithelia; assay type: cell-based; conditions: apical
Protocol: (§1) Airway surface liquid (ASL) pH assay. ASL pH was studied using an established fluorescent dye assay using the Dextran, SNARF®-1, 70,000 MW ratiometric dye (Thermo Fisher D3304). Mature, differentiated CuFi-1 (ATCC CRL-4013) epithelial monolayers were grown on Corning Costar 0.4 μm Transwell Clear Polyester Membrane cell culture inserts (Corning 3470). CuFi epithelia were treated with perfluorinated hydrocarbon (PFC) vehicle, AmB, AmB:Chol or Chol and incubated for the time course of the experiment at 37° C. On the day of imaging, 100 μL of a suspension of SNARF-dextran in PFC was added to the apical side of the monolayers. Monolayers were imaged 2 hours after dye addition. The monolayers were placed on 100 μL of Ultroser G media on a 10 mm glass bottom Fluorodish for imaging (World Precision Instruments). Five images per membrane were taken on a Zeiss LSM 880 confocal microscope at 40× water immersion. These images were analyzed using ImageJ to determine the green to red ratio of each image. Solutions of known pH were used to calibrate pH detection using this system.
Non-CF (control) and CF primary human lung epithelia were prepared and maintained in vitro as previously described. Pezzulo A A et al. (2012) Nature 487: 109-113. […]

[3] = test system: CuFi-4 (ΔF508/G551D) epithelia; experiment: ASL pH in CuFi-4 epithelia; assay type: cell-based, human
Protocol: as §1
Ivacaftor is a clinically approved and effective drug to treat cystic fibrosis, and it was used as a control in some of the experiments. […]

[4] = test system: CF primary human lung epithelia; experiment: Change in short-circuit current in CF primary human lung epithelia after AmB treatment; assay type: cell-based; conditions: 2 μM, 48 h
Protocol: Non-CF (control) and CF primary human lung epithelia were prepared and maintained in vitro as previously described. Pezzulo A A et al. (2012) Nature 487: 109-113. For example, epithelial cells were isolated from the trachea and bronchi by enzymatic digestion, seeded onto collagen-coated semi-permeable membranes (0.6 cm^2 Millicell-PCF; Millipore, Bedford, MA), and grown at the air-liquid interface as previously described in Karp P H et al. (2002) In Wise C., Epithelial Cell Culture Protocols, Humana Press, Inc. 188: 115-137. Culture medium, a 1:1 mixture of Dulbecco's modified Eagle's medium and Ham's F12 medium (DMEM/F12), was supplemented with 2% Ultroser G (PALL France SAS; Saint Germain-en-Laye, France). Differentiated epithelia were used at least 14 days after seeding.
These cells were treated with AmB at a final concentration of 2 μM for 48 h, and then change in short-circuit current was measured.

[5] = 13C NMR-based bicarbonate release assay in liposomes
Protocol: In some embodiments, a small molecule or a complex can permeabilize the apical membrane of differentiated human lung epithelia to bicarbonate. A series of natural and synthetic small molecules reported previously to permeabilize liposomes, cells, and/or nasal epithelia of mice to anions were tested for the capacity to increase short circuit current across CuFi-1 epithelial monolayers using an Ussing chamber. […] The capacity for AmB to transport bicarbonate was tested using an adapted ^13C NMR-based assay in cholesterol-containing POPC liposomes.

[6] = Proton release (1:100 AmB:lipid vs DMSO); conditions: FIG. 18
Protocol: FIG. 18 depicts the effect of 1:100 AmB:lipid (circles) compared to DMSO (triangles) on proton release.
(§2) To directly probe whether AmB-mediated bicarbonate transport causes the ASL pH increase, pH-stat experiments were performed in large NuLi and CuFi-1 epithelial monolayers either in the presence of bicarbonate or in bicarbonate-free solution. Cho, D Y, et al., (2009) Am J Rhinol Allergy 23, e10-13; Cho, D Y, et al., (2011) Int Forum Allergy Rhinol 1, 123-127. […] To address the potential role of proton absorption in the alkalization of the ASL, these experiments were repeated in bicarbonate-free buffer.

[7] = test system: CuFi-1 (ΔF508/ΔF508) epithelial monolayers; experiment: 14C bicarbonate transport in CuFi-1 monolayers; assay type: cell-based, human
Protocol: ^14C bicarbonate was administered to the basolateral side of monolayers to trace ion movement through the cells over time. Epithelial monolayers grown from the patient-derived lung epithelial cell line CuFi-1 (ΔF508/ΔF508) were also studied. The genotype ΔF508/ΔF508 represents about 46.5% of all CF patients and is considered a relatively severe deficiency. Permeabilization of the apical membrane to bicarbonate anions with AmB could correct the flux abnormality resulting from the loss of CFTR. Upon treatment with 2 μM AmB for 48 hours, a decrease in intracellular ^14C bicarbonate and an increase in ASL ^14C bicarbonate compared to CuFi-1 alone was observed (FIGS. 15A and 15B).

[8] = test system: CuFi-1 epithelial monolayers; experiment: pH-stat apical chamber alkalization in CuFi-1 monolayers; assay type: cell-based, human
Protocol: as §2

[9] = test system: protein ion channel-deficient yeast (trk1Δtrk2Δ); conditions: cited from earlier work
yeast = conditions: cited from earlier work

For `C[C@@H]1[C@H](O)[C@@H](C)/C=C/C=C/C=C/C=C/C=C/C=C/C=C/[C@H](O[C@@H]2O[C@H](C)[C@@H](O)[C@H](N)[C@@H]2O)C[C@@H]2O[C@](O)(C[C@@H](O)C[C@@H](O)[C@H](O)CC[C@@H](O)C[C@@H](O)CC(=O)O[C@H]1C)C[C@H](O)[C@H]2C(=O)O` [AmB, amphotericin B], the “effect on ASL pH, apical addition” value ([1]; CuFi-1) was “increase ASL pH; also recorded: efficacious”, the “effect on ASL pH, basolateral addition” value ([1]; CuFi-1, basolateral addition) was “unable to increase ASL pH; also recorded: not basolateral” and the “drop of ASL pH below the starting pH” value ([1]; Example 7, FIG. 8, by 25 μM and beyond) was “about 0.05 pH units”. The “dose up to which ASL pH increased” value ([1]; Example 7, FIG. 8, suspension in PFC) was 2 μM, the “ASL pH at high dose” value ([1]; Example 14, FIG. 21, by 25 μM) was “back down to the starting pH” and the “dose at which ASL pH increase peaks” value ([1]; Example 14, FIG. 21, suspension in PFC) was 5 μM. The “effect on ASL pH of non-CF epithelia” value [2] was “absence of effect; also recorded: no effect”, the “effect on ASL pH” value [3] was “increase ASL pH” and the “change in short-circuit current compared to untreated CF epithelia” value [4] was “no significant difference”. For the same molecule, the “release of 13C-labelled bicarbonate from liposomes” value [5] was “Robust and rapid release”, the proton transport [6] was “able to transport protons” and the “intracellular 14C bicarbonate” value ([7]; 2 μM, 48 hours, compared to CuFi-1 alone) was “decrease”. For the same molecule, the “ASL 14C bicarbonate, apical treatment” value ([7]; CuFi-1) was “significantly increase; also recorded: increase bicarbonate in ASL”, the “apical transport of bicarbonate, basolateral treatment” value ([7]; CuFi-1, basolateral) was “unable to increase apical transport of bicarbonate; also recorded: not basolateral” and the apical chamber alkalization ([8]; bicarbonate-free buffer) was “did not increase apical chamber alkalization; also recorded: No change in apical chamber alkalization”. The apical chamber alkalization ([8]; in the presence of basolateral bicarbonate) was “increase apical chamber alkalization”, the yeast growth rescue [9] was “restored to normal phenotype (growth); also recorded: restore growth” and the “fungicidal activity / toxicity to yeast” value (yeast) was “highly toxic to yeast”.
